Biological target: T1, APJ Receptor (Homo sapiens, UniProt P35414)
T1 sequence (P35414 1-380): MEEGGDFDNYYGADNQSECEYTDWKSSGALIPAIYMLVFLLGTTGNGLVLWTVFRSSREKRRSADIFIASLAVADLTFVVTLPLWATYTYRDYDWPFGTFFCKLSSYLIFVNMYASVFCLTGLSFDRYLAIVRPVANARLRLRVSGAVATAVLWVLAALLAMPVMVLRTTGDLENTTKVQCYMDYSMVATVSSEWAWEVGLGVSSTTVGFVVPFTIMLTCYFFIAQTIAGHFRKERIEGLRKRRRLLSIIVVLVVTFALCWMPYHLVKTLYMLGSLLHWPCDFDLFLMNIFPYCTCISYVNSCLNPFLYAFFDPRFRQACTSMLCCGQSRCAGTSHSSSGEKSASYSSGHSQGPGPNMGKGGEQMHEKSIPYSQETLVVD
Assay: APJ cAMP assay (DiscoverX enzyme fragment complementation; inhibition of forskolin-stimulated cAMP)
Format: cell-based
Conditions: CHO-K1 cell line stably expressing the APJ Receptor; EC80 forskolin; 30 minutes at 37° C.; read-out: Potency Range (APJ cAMP EC50)
Summary of the method: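 CHO-K1 cells stably expressing APJ incubated with compound plus EC80 forskolin for 30 min at 37° C. cAMP detected by β-galactosidase enzyme fragment complementation with chemiluminescent read-out; % activity calculated relative to vehicle and maximal controls.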

Compound	EC50
CCOc1cccc(-c2nc3ncc(NS(=O)(=O)c4ccncc4)nc3n2-c2c(OC)cccc2OC)n1 [Example 25, N-(1-(2,6-dimethoxyphenyl)-2-(6-ethoxypyridin-2-yl)-1H-imidazo[4,5-b]pyrazin-6-yl)pyridine-4-sulfonamide]	1 to 100 nM
CCOc1cccc(-c2nc3nc(Cl)c(NS(=O)(=O)N4CCOCC4)nc3n2-c2c(OC)cccc2OC)n1 [Example 98, N-(5-Chloro-1-(2,6-dimethoxyphenyl)-2-(6-ethoxypyridin-2-yl)-1H-imidazo[4,5-b]pyrazin-6-yl)morpholine-4-sulfonamide]	1 to 100 nM
COc1cccc(-c2nc3ncc(NS(=O)(=O)c4ccccn4)nc3n2-c2c(OC)cccc2OC)n1 [Example 52, N-(1-(2,6-dimethoxyphenyl)-2-(6-methoxypyridin-2-yl)-1H-imidazo[4,5-b]pyrazin-6-yl)pyridine-2-sulfonamide]	1 to 100 nM
CCOc1cccc(-c2nc3nnc(NS(C)(=O)=O)cc3n2-c2c(OC)cccc2OC)n1 [Example 21, N-(5-(2,6-dimethoxyphenyl)-6-(6-ethoxypyridin-2-yl)-5H-imidazo[4,5-c]pyridazin-3-yl)methanesulfonamide]	1 to 100 nM
CCOc1cccc(-c2nc3ncc(NS(C)(=O)=O)nc3n2C(CC)CC)n1 [Example 58, N-(2-(6-ethoxypyridin-2-yl)-1-(pentan-3-yl)-1H-imidazo[4,5-b]pyrazin-6-yl)methanesulfonamide]	1 to 100 nM
CCOc1cccc(-c2nc3nc(Cl)c(NS(=O)(=O)Cc4ncccc4F)nc3n2-c2c(OC)cccc2OC)n1 [Example 94, N-(5-Chloro-1-(2,6-dimethoxyphenyl)-2-(6-ethoxypyridin-2-yl)-1H-imidazo[4,5-b]pyrazin-6-yl)-1-(3-fluoropyridin-2-yl)methanesulfonamide]	1 to 100 nM
CCOc1cccc(-c2nc3nc(CC4CC4)c(NS(C)(=O)=O)nc3n2-c2c(OC)cccc2OC)n1 [Example 65, N-(5-(cyclopropylmethyl)-1-(2,6-dimethoxyphenyl)-2-(6-ethoxypyridin-2-yl)-1H-imidazo[4,5-b]pyrazin-6-yl)methanesulfonamide]	< 1 nM
CCOc1cccc(-c2nc3nc(NS(=O)(=O)C4CC4)cnc3n2-c2c(OC)cccc2OC)n1 [Example 92, N-(1-(2,6-Dimethoxyphenyl)-2-(6-ethoxypyridin-2-yl)-1H-imidazo[4,5-b]pyrazin-5-yl)cyclopropanesulfonamide]	1 to 100 nM
CCOc1cccc(-c2nc3nccnc3n2-c2c(OC)cccc2OC)n1 [Example 18, 1-(2,6-dimethoxyphenyl)-2-(6-ethoxypyridin-2-yl)-1H-imidazo[4,5-b]pyrazine]	100 to 10000 nM
CCOc1cccc(-c2nc3ncc(NS(C)(=O)=O)nc3n2-c2c(OC)cccc2OC)n1 [Example 2, N-(1-(2,6-dimethoxyphenyl)-2-(6-ethoxypyridin-2-yl)-1H-imidazo[4,5-b]pyrazin-6-yl)methanesulfonamide]	1 to 100 nM
CCOc1cccc(-c2nc3nc(Cl)c(NS(=O)(=O)C4CCOCC4)nc3n2-c2c(OC)cccc2OC)n1 [Example 111, N-(5-Chloro-1-(2,6-dimethoxyphenyl)-2-(6-ethoxypyridin-2-yl)-1H-imidazo[4,5-b]pyrazin-6-yl)tetrahydro-2H-pyran-4-sulfonamide]	1 to 100 nM
CCOc1cccc(-c2nc3ncc(NS(=O)(=O)[C@H]4CC[C@@H](O)CC4)nc3n2-c2c(OC)cccc2OC)n1 [Example 40, cis-N-(1-(2,6-dimethoxyphenyl)-2-(6-ethoxypyridin-2-yl)-1H-imidazo[4,5-b]pyrazin-6-yl)-4-hydroxycyclohexane-1-sulfonamide]	1 to 100 nM

More lines, now with the values ahead:

EC50	Compound
1 to 100 nM	COc1cccc(OC)c1-n1c(-c2ccc(C)o2)nc2ncc(NS(C)(=O)=O)nc21 [Example 131, N-(1-(2,6-dimethoxyphenyl)-2-(5-methylfuran-2-yl)-1H-imidazo[4,5-b]pyrazin-6-yl)methanesulfonamide]
1 to 100 nM	CCOc1cccc(-c2nc3nc(Cl)c(NS(=O)(=O)CC4(O)CC4)nc3n2-c2c(OC)cccc2OC)n1 [Example 113, N-(5-Chloro-1-(2,6-dimethoxyphenyl)-2-(6-ethoxypyridin-2-yl)-1H-imidazo[4,5-b]pyrazin-6-yl)-1-(1-hydroxycyclopropyl)methanesulfonamide]
1 to 100 nM	CCOc1cccc(-c2nc3nc(N)c(NS(C)(=O)=O)nc3n2-c2c(OC)cccc2OC)n1 [Example 145, N-(5-Amino-1-(2,6-dimethoxyphenyl)-2-(6-ethoxypyridin-2-yl)-1H-imidazo[4,5-b]pyrazin-6-yl)methanesulfonamide]
100 to 10000 nM	CCCOc1nc2ncc(NS(=O)(=O)c3ccccc3)nc2n1-c1c(OC)cccc1OC [Example 134, N-(1-(2,6-Dimethoxyphenyl)-2-propoxy-1H-imidazo[4,5-b]pyrazin-6-yl) benzenesulfonamide]
1 to 100 nM	C=Cc1nc2nc(-c3cccc(OCC)n3)n(-c3c(OC)cccc3OC)c2nc1NS(C)(=O)=O [Example 137, N-(1-(2,6-Dimethoxyphenyl)-2-(6-ethoxypyridin-2-yl)-5-vinyl-1H-imidazo[4,5-b]pyrazin-6-yl)methanesulfonamide]
1 to 100 nM	CCOc1cccc(-c2nc3nnc(NS(C)(=O)=O)c(C)c3n2-c2c(OC)cccc2OC)n1 [Example 139, N-(7-(2,6-Dimethoxyphenyl)-8-(6-ethoxypyridin-2-yl)-6-methyl-7H-imidazo[4,5-c]pyridazinyl)methanesulfonamide]
< 1 nM	CCOc1cccc(-c2nc3nnc(NS(=O)(=O)c4ccc(F)cn4)cc3n2-c2c(OC)cccc2OC)n1 [Example 120, N-(7-(2,6-Dimethoxyphenyl)-8-(6-ethoxypyridin-2-yl)-7H-imidazo[4,5-c]pyridazinyl)-5-fluoropyridine-2-sulfonamide]
< 1 nM	CCOc1cccc(-c2nc3nc(Cl)c(NS(=O)(=O)C[C@H]4C[C@](C)(O)C4)nc3n2-c2c(OC)cccc2OC)n1 [Example 115, N-(5-Chloro-1-(2,6-dimethoxyphenyl)-2-(6-ethoxypyridin-2-yl)-1H-imidazo[4,5-b]pyrazin-6-yl)-1-((1r,3r)-3-hydroxymethylcyclobutyl) methanesulfonamide]
< 1 nM	CCOc1cccc(-c2nc3nc(Cl)c(NS(=O)(=O)N(C)C4CC4)nc3n2-c2c(OC)cccc2OC)n1 [Example 112, N-(5-Chloro-1-(2,6-dimethoxyphenyl)-2-(6-ethoxypyridin-2-yl)-1H-imidazo[4,5-b]pyrazin-6-yl)-N′-methyl-N′-cyclopropylsulfamide]

From patent US11944622B2 (Annapurna Bio, Inc., priority 2018, dated 2024)
